Measurements reported in US20120141586A1, “THROMBIN RECEPTOR ANTAGONIST AND CLOPIDOGREL FIXED DOSE TABLET” (priority 2009, published 2012).
“Also recorded” adds a separate entry of the source.

Columns and labels:
[1] = target: T1, thrombin receptor (Homo sapiens, UniProt P25116); conditions: cited from earlier work
T1 sequence (P25116 22-425): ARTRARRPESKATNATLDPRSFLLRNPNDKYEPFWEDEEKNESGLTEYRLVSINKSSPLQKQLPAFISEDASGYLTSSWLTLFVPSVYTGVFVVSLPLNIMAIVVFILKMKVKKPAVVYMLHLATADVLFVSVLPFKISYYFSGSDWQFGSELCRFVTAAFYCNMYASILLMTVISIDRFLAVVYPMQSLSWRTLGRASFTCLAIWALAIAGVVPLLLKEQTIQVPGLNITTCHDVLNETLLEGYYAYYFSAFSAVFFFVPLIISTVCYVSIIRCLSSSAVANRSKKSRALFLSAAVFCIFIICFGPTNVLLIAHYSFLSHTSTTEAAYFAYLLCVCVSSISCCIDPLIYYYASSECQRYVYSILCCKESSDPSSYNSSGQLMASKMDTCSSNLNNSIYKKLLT

[2] = forced degradation data generated at Dr. Reddy's Lab; cited from earlier work
[3] = Compatibility studies between clopidogrel premix and 530348 bisulfate / free base
Text: b. […] Clopidogrel is known to degrade under acidic and alkaline conditions. […] To test this hypothesis, the above studies were repeated in the presence of 530348 free base.

Structure (SMILES) | Selectivity [1] | Thrombin receptor antagonist activity (potency) [1] | Susceptibility of clopidogrel to degradation [2] | Extent of clopidogrel degradation ([3]; bisulfate salt compared to 530348 free base (FIG. 2)) | Clopidogrel degradation ([3]; in the presence of 530348 bisulfate)
CCOC(=O)N[C@@H]1CC[C@@H]2[C@@H](C1)C[C@H]1C(=O)O[C@H](C)[C@H]1[C@H]2/C=C/c1ccc(-c2cccc(F)c2)cn1 [SCH 530348, ethyl[(1R,3aR,4aR,6R,8aR,9S,9aS)-9-[(E)-2-[5-(3-fluorophenyl)-2-pyridinyl]ethenyl]dodecahydro-1-methyl-3-oxonaphtho[2,3-c]furan-6-yl]carbamate] | good | good | – | – | –
COC(=O)[C@H](c1ccccc1Cl)N1CCc2sccc2C1 [clopidogrel] | – | – | susceptible to degradation upon exposure to heat, humidity, and oxygen | greater in the presence of the bisulfate salt | significant degradation; also recorded: degrades
CCOC(=O)N[C@@H]1CC[C@@H]2[C@@H](C1)C[C@H]1C(=O)O[C@H](C)[C@H]1[C@H]2/C=C/c1ccc(-c2cccc(F)c2)cn1 [SCH 530348 bisulfate] | good | good | – | – | –
